Data published in article PMC6099493, “Discovery of Matrinic Thiadiazole Derivatives as a Novel Family of Anti-Liver Fibrosis Agents via Repression of the TGFβ/Smad Pathway” (Molecules : A Journal of Synthetic Chemistry and Natural …, 2018).
Counter-ions that a name gives are not always drawn.

How the values were obtained:
α-SMA protein = α-SMA protein level by western blot in LX-2 cells; format: cell-based; conditions: Homo sapiens, TGFβ1 2 ng/mL, read-out: α-SMA protein level inhibition rate
Experimental: (§1) α-SMA is a more commonly recognized indicator for liver fibrosis, and it could be induced by a stimulation of TGFβ1 [22], therefore, the amounts of α-SMA were also evaluated.
(§2) LX-2 cells were cultured as described above. Briefly, cells were washed with phosphate-buffered saline (PBS) and were lysed in radioimmunoprecipitation assay (RIPA) lysis for 30 min in 4 °C; the supernatant was collected after centrifugation at 12,000× g, 4 °C for 15 min. Equal amounts of protein were quantified with Bradford assay, separated by SDS-PAGE and transferred to polyvinylidene difluoride membrane. The membranes were blocked for one hour at room temperature in PBST containing 5% milk and probed with specific first antibodies overnight at room temperature. Membrane was washed 3 times by PBST, followed by horseradish peroxidase-conjugated secondary antibodies and GAPDH. The proteins were visualized using chemiluminescence reagents.

COL1A1 promotor = COL1A1 promotor single luciferase reporter gene model in LX-2 (LX2-COL) cells; format: cell-based, human; conditions: LX-2 cells treated simultaneously with TGFβ1 and compound; for inhibition at 40 µM: Homo sapiens, read-out: Inhibition Percentage (inhibition rate of COL1A1 promotor's activity in LX2 cells)
COL1A1 mRNA = COL1A1 mRNA level by real-time PCR in TGFβ1-stimulated LX-2 cells; format: cell-based, human; conditions: 80 μM, TGFβ1 2 ng/mL
Experimental: (§3) Next, compounds 6i, 6l and 6n were chosen as the key compounds to verify their inhibitory effects against COL1A1. LX-2 cells were stimulated with TGFβ1 (2 ng/mL), and then treated with compounds 6i, 6l and 6n (80 μM) respectively, taking 1 as the control. Their anti-COL1A1 effects were evaluated on RNA level by real-time PCR amplification. […] Then their anti-COL1A1 effects were investigated on the protein level by western blot assays.
(§4) LX-2 cells were seeded in 6-well plate, cultured in DMEM, containing 10% fetal bovine serum (FBS) in a 5% CO2 atmosphere at 37 °C. And serum-free culture was required until the cells at 90–95% confluence. After 24 h, cells were treated with TGFβ1 (2 ng/mL) and matrinic derivatives (80 μM) for 24 h. Total RNA from the LX-2 cells was extracted using Trizol reagent, purified by NucleoSpin RNA Clean-up. Reverse transcription was performed with a Transcriptor first strand cDNA synthesis kit. The cDNA was then analysis by ABI 7500 Fast Real-Time PCR System (ThermoFisher Scientific, Singapore) using TaqMan probes of TGFβ1, COL1A1, α-SMA, and GAPDH (sequence reserved by ABI, Foster City, CA ,USA) and FastStart Universal Probe master mix (Roche, Indianapolis, IN, USA).

COL1A1 protein = COL1A1 protein level by western blot in LX-2 cells; format: cell-based; conditions: Homo sapiens, TGFβ1 2 ng/mL, read-out: COL1A1 protein level inhibition rate
Experimental: as §3, §2

α-SMA mRNA = α-SMA mRNA level by real-time PCR in TGFβ1-stimulated LX-2 cells; format: cell-based, human; conditions: 80 μM, TGFβ1 2 ng/mL
Experimental: as §1, §4

[1] = MTT cytotoxicity / cell survival assay; format: cell-based; conditions: human, HepG2 cells, read-out: CC50 (cytotoxic concentration required to inhibit HepG2 cell growth by 50%)
Experimental: A single luciferase reporter gene detection model was applied to screen the inhibitory effects towards COL1A1 promotor of all target compounds in human hepatic stellate LX-2 cells at the concentration of 40 μM, taking EGCG and compound 1 as the positive controls. The LX2-COL monoclone cell line was treated simultaneously with TGFβ1 and a target compound [13]. The cytotoxicity was determined using MTT assay in HepG2 cells.
The cell survival was evaluated by MTT assay. HepG2 cells were seeded at density of 6 × 10^3 cells/well in 96-well plate. Cells were treated with various concentrations of matrinic derivate until the cells at 50% confluence. After 24 h of incubation, 20 µL of the MTT (5 mg/mL) solution was added into each plate and incubated for 4 h at 37 °C, 5% CO2. Subsequently, the culture supernatant was replaced with 150 µL DMSO to dissolve the formazan crystal. The absorbance at 570 nm was measured using a microplate reader (ELx800, BioTek Instruments, Winooski, VT, USA).

[2] = test system: Smad2 / phosphorylated Smad2 (TGFβ/Smad pathway); experiment: Smad2 and p-Smad2 levels by western blot in LX-2 cells; format: cell-based, human
Experimental: Considering the key role of TGFβ/Smad pathway in activating COL1A1, the effects of the three compounds on Smad and phosphorylated Smad were then evaluated.
as §2

melting point | SMILES | inhibition at 40 µM (COL1A1 promotor) | further results
189 to 190 °C | CN(C)c1nnc(CCCC2C3CCCN4CCCC(CN2Cc2ccccc2)C34)s1 (stereo not drawn) (as salt: hydrochloride) [Compound 6k, 12-N-Benzyl-3′-(N,N-dimethyl-5-amino-1,3,4-thiadiazol-2-yl)-matrinic propane hydrochloride] | – | –
239 to 240 °C | Cc1ccc(S(=O)(=O)N2CC3CCCN4CCCC(C34)C2CCCC(=O)O)cc1 (stereo not drawn) [Compound 1, 12-N-p-Methylbenzenesulfonyl matrinic acid] | 18.5% | inhibition at 80 µM (α-SMA protein): 28.9%; COL1A1 mRNA level inhibitory rate (COL1A1 mRNA): 41.9%; inhibition at 80 µM (COL1A1 protein): 16.2%; α-SMA mRNA level inhibitory rate (α-SMA mRNA): 69.7%; CC50 at 24 h [1]: > 320 µM
– | O=C(O)CCCC1C2CCCN3CCCC(CN1S(=O)(=O)c1ccc(C(F)(F)F)cc1)C23 (stereo not drawn) [Compound 5a] | -3.7% | –
95 to 96 °C | O=C(O)CCCC1C2CCCN3CCCC(CN1Cc1ccccc1)C23 (stereo not drawn) [Compound 5b, 12-N-Benzyl matrinic acid] | -33.6% | –
106 to 108 °C | Cc1ccc(CN2CC3CCCN4CCCC(C2CCCC(=O)O)C34)cc1 (stereo not drawn) [Compound 5c, 12-N-p-Methylbenzyl matrinic acid] | -116% | –
134 to 135 °C | O=C(O)CCCC1C2CCCN3CCCC(CN1Cc1ccc(Br)cc1)C23 (stereo not drawn) [Compound 5d, 12-N-p-Bromobenzyl matrinic acid] | 6.4% | –
237 °C (dec.) | Cc1ccc(S(=O)(=O)N2CC3CCCN4CCCC(C34)C2CCCc2nnc(N)s2)cc1 (stereo not drawn) [Compound 6a, 12-N-p-Methlybenzenesulfonyl-3′-(5-amino-1,3,4-thiadiazol-2-yl)-matrinic propane] | 21.2% | CC50 at 24 h [1]: > 320 µM
169 to 170 °C | CNc1nnc(CCCC2C3CCCN4CCCC(CN2S(=O)(=O)c2ccc(C)cc2)C34)s1 (stereo not drawn) [Compound 6b, 12-N-p-Mmethlybenzenesulfonyl-3′-(N-methyl-5-amino-1,3,4-thiadiazol-2-yl)-matrinic propane] | 12.8% | –
193 to 194 °C | Cc1ccc(S(=O)(=O)N2CC3CCCN4CCCC(C34)C2CCCc2nnc(NC(C)C)s2)cc1 (stereo not drawn) [Compound 6c, 12-N-p-Methylbenzenesulfonyl-3′-(N-iso-propyl-5-amino-1,3,4-thiadiazol-2-yl)-matrinic propane] | -84.2% | –
142 to 143 °C | Cc1ccc(S(=O)(=O)N2CC3CCCN4CCCC(C34)C2CCCc2nnc(N(C)C)s2)cc1 (stereo not drawn) [Compound 6d, 12-N-p-Methylbenzenesulfonyl-3′-(N,N-dimethyl-5-amino-1,3,4-thiadiazol-2-yl)-matrinic propane] | -36.7% | –
206 °C (dec.) | Nc1nnc(CCCC2C3CCCN4CCCC(CN2S(=O)(=O)c2ccc(C(F)(F)F)cc2)C34)s1 (stereo not drawn) [Compound 6f, 12-N-p-Ttrifluoromethlybenzenesulfonyl-3′-(5-amino-1,3,4-thiadiazol-2-yl)-matrinic propane] | -19% | –
181 °C (dec.) | CNc1nnc(CCCC2C3CCCN4CCCC(CN2S(=O)(=O)c2ccc(C(F)(F)F)cc2)C34)s1 (stereo not drawn) [Compound 6g, 12-N-p-Trifluoromethlybenzenesulfonyl-3′-(N-methyl-5-amino-1,3,4-thiadiazol-2-yl)-matrinic propane] | 6.1% | –
147 to 148 °C | CN(C)c1nnc(CCCC2C3CCCN4CCCC(CN2S(=O)(=O)c2ccc(C(F)(F)F)cc2)C34)s1 (stereo not drawn) [Compound 6h, 12-N-p-Trifluoromethlybenzenesulfonyl-3′-(N,N-dimethyl-5-amino-1,3,4-thiadiazol-2-yl)-matrinic propane] | -35.2% | –
137 to 138 °C | CNc1nnc(CCCC2C3CCCN4CCCC(CN2Cc2ccccc2)C34)s1 (stereo not drawn) [Compound 6j, 12-N-Benzyl-3′-(N-methyl-5-amino-1,3,4-thiadiazol-2-yl)-matrinic propane] | 29.5% | –
– | CN(C)c1nnc(CCCC2C3CCCN4CCCC(CN2Cc2ccccc2)C34)s1 (stereo not drawn) [Compound 6k, 12-N-Benzyl-3′-(N,N-dimethyl-5-amino-1,3,4-thiadiazol-2-yl)-matrinic propane hydrochloride] | 15.2% | –
167 to 168 °C | Cc1ccc(CN2CC3CCCN4CCCC(C2CCCc2nnc(N)s2)C34)cc1 (stereo not drawn) [Compound 6l, 12-N-p-Methylbenzyl-3′-(5-amino-1,3,4-thiadiazol-2-yl)-matrinic propane] | 38.7% | inhibition at 80 µM (α-SMA protein): 93.8%; Effect on Smad level [2]: did not affect the Smad level; Effect on phosphorylation level of Smad2 (in words) [2]: repressed the phosphorylation level of Smad2 significantly; inhibition at 80 µM (COL1A1 protein): 99.3%; α-SMA mRNA level inhibitory rate (α-SMA mRNA): 82.5%; CC50 at 24 h [1]: > 320 µM
163 to 164 °C | CNc1nnc(CCCC2C3CCCN4CCCC(CN2Cc2ccc(C)cc2)C34)s1 (stereo not drawn) [Compound 6m, 12-N-p-Methylbenzyl-3′-(N-methyl-5-amino-1,3,4-thiadiazol-2-yl)-matrinic propane] | -29.6% | –
193 to 194 °C | Nc1nnc(CCCC2C3CCCN4CCCC(CN2Cc2ccc(Br)cc2)C34)s1 (stereo not drawn) [Compound 6o, 12-N-p-Bromobenzyl-3′-(5-amino-1,3,4-thiadiazol-2-yl)-matrinic propane] | 7.8% | –
273 °C (dec.) | CC(=O)Nc1nnc(CCCC2C3CCCN4CCCC(CN2S(=O)(=O)c2ccc(C)cc2)C34)s1 (stereo not drawn) [Compound 7a, 12-N-p-Methylblenzenesulfonyl-3′-(5-acetylamino-1,3,4-thiadiazol-2-yl)-matrinic propane] | 33.9% | –
197 °C (dec.) | CC(=O)Nc1nnc(CCCC2C3CCCN4CCCC(CN2S(=O)(=O)c2ccc(C(F)(F)F)cc2)C34)s1 (stereo not drawn) [Compound 7b, 12-N-p-Trifluoromethlybenzenesulfonyl-3′-(5-acetylamino-1,3,4-thiadiazol-2-yl)-matrinic propane] | -6% | –
188 to 189 °C | CC(=O)Nc1nnc(CCCC2C3CCCN4CCCC(CN2Cc2ccccc2)C34)s1 (stereo not drawn) [Compound 7c, 12-N-Benzyl-3′-(5-acetylamino-1,3,4-thiadiazol-2-yl)-matrinic propane] | 12.9% | –
226 °C (dec.) | CC(=O)Nc1nnc(CCCC2C3CCCN4CCCC(CN2Cc2ccc(C)cc2)C34)s1 (stereo not drawn) [Compound 7d, 12-N-p-Methylbenzyl-3′-(5-acetylamino-1,3,4-thiadiazol-2-yl)-matrinic propane] | 27% | –
– | O=C(O[C@@H]1Cc2c(O)cc(O)cc2O[C@@H]1c1cc(O)c(O)c(O)c1)c1cc(O)c(O)c(O)c1 [EGCG, epigallocatechin gallate, reference compound] | – | Inhibition Percentage (inhibition rate of COL1A1 promotor's activity in LX2 cells) (COL1A1 promotor; 40 μM): 27.5% ± 7.9%
